We go through 7 compounds from patent US20250179047A1, “5-[7-(3,4-DIHYDRO-1H-ISOQUINOLINE-2-CARBONYL)-1,2,3,4 TETRAHYDROISOQUINOLIN-6-YL]-1H-PYRROLE-3-CARBOXAMIDE DERIVATIVES, PHARMACEUTICAL COMPOSITIONS CONTAINING THEM AND THEIR USES AS PRO-APOPTOTIC AGENTS” (LES LABORATOIRES SERVIER, priority 2022, published 2025).

One data set addresses BCLXL WT (Homo sapiens (Human), UniProt Q07817). As to the kind of experiment: TR-FRET competitive binding assay, BCLXL WT. The conditions noted are these: for Ki: BCLXL WT, Ki determined from IC50, read-out: TR_FRET EKI BclxL; for TR_FRET EKI BCLxL/WT selectivty ratio: ratio Ki BCLxL / Ki BCL2 WT. In outline:
(§1)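 Competitive TR-FRET displacement of fluorescein-PUMA peptide (2 or 20 nM) from 0.5 nM terbium-labelled N-terminal Halo-fusion BCL2 (1-207, wild type or mutant) or BCLXL (2-196), expressed in E. coli. Buffer 50 mM Hepes pH 7.5, 150 mM NaCl, 5% DMSO; 2 h at 23°C. 520/495 nm ratio fitted over 11 points for IC50, converted to Ki.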
On the technique in general: TR-FRET usually uses a lanthanide donor and a delayed reading to cut background.

Data set [1] can be described thus: Pharmacokinetics in SCID mice. The conditions noted are these: 25 mg/kg IV bolus; for PK parameters Cinf: concentration at the end of bolus administration; for AUC: mouse, blood, area under curve over 24 h, read-out: PK parameters AUC24. The format is in vivo. Here is the method: Pharmacokinetic (PK) and platelet toxicity were investigated in SCID mice. Compounds were administered at 25 mg/kg by IV bolus, and formulated in PEG/Ethanol/NaCl 0.9% (40/10/50 v/v/v).
Blood samples (3 animals/time point and 3 time points/animal) were collected over 24 h after dosing: 0.05 h, 0.5 h, 1 h, 3 h, 6 h and 24 h for PK and 6 h and 24 h for platelets.
PK samples were analyzed by liquid chromatography using tandem mass spectrometry detection (LC-MS/MS) and platelet count (109/L) was measured using an hematology analyzer. Percentage of platelet loss was calculated at both time points (T+6 h and 24 h) as compared to a control group of 6 animals. PK parameters (Cinf and AUC24, which correspond to the concentration at the end of bolus administration and the area under curve over 24 h, respectively) were also determined using a non-compartmental analysis.

A further data set addresses BCL2 D111A (Homo sapiens, UniProt P10415, D111A). As to the kind of experiment: TR-FRET competitive binding assay, BCL2 D111A. The settings on record: Ki determined from IC50, read-out: TR_FRET EKI_Bcl2 D111A. An outline of the steps:
as §1

The test system of a further data set is KMS12PE Bcl2 G101V. The data set can be described thus: In vitro cytotoxicity CellTiterGlo 72 h, KMS12PE Bcl2 G101V. The format is cell-based. The settings on record: Homo sapiens, KMS-12-PE, read-out: C50 nM, KMS12PE Bcl2 G101V. Here is the method:
(§2) KMS-12-PE (ACC 606) were purchased from the Leibniz-Institute DSMZ (Braunschweig, Germany) and were grown at 37° C. in a humidified atmosphere with 5% CO2 in media recommended by the suppliers. Lentiviral particles containing Bcl-2 wild type (also named “Bcl2 WT”), Bcl-2 mutated on G101V (also named “Bcl2 G101V”), Bcl-2 mutated on D103Y (also named “Bcl2 D103Y”), Bcl-2 mutated on D103V (also named “Bcl2 D103V”), Bcl-2 mutated on D103E (also named “Bcl2 D103E”), Bcl-2 mutated on F104I (also named “Bcl2 F104I”), Bcl-2 mutated on F104L (also named “Bcl2 F104L”), Bcl-2 mutated on D111A (also named “Bcl2 D111A”), Bcl-2 mutated on A113G (also named “Bcl2 A113G”), Bcl-2 mutated on R129L (also named “Bcl2 R129L”), Bcl-2 mutated on V156D (also named “Bcl2 V156D”) were cloned into pcLV-CMV-DEST-IRES-TagRFP. Lentiviral particles (1×10^6) were mixed with Polybrene at 8 μg/ml and transduced by spinoculation for 1 h at 32° C. and incubated overnight. After 8 days, TagRFP positive-cells were sorted by FACS. BCL2 expression was monitored by immunoblotting using anti-Flag and anti-BCL2 antibodies. Cells were seeded into 96-wells plates and treated with 1:3.16 serial dilution of compounds (9 different concentrations). Cell viability was assessed using CellTiterGlo reagent following treatment for 72 h. Results were normalized to the viability of cells without compounds (control wells). The C50 values were calculated using nonlinear regression algorithms in XCell software.

A further data set addresses BCL2 WT (Homo sapiens (Human), UniProt P10415). The data set can be described thus: TR-FRET competitive binding assay, BCL2 WT. The settings on record: Ki determined from IC50, read-out: TR_FRET EKI_Bcl2 WT. An outline of the steps: as §1
The next data set relates to KMS12PE Bcl2 D103E. The data set can be described thus: In vitro cytotoxicity CellTiterGlo 72 h, KMS12PE Bcl2 D103E. The format is cell-based. The settings on record: Homo sapiens, KMS-12-PE, read-out: C50 nM, KMS12PE Bcl2 D103E. Here is the method:
as §2
In general terms: Cellular ATP, detected with luciferase, serves as a proxy for viable cell number.

For a further data set, the target named is BCL2 F104I (Homo sapiens, UniProt P10415, F104I). The data set can be described thus: TR-FRET competitive binding assay, BCL2 F104I. The settings on record: Ki determined from IC50, read-out: TR_FRET EKI_Bcl2 F104I. In outline:
as §1

BCL2 WT, sequence (P10415 other isoform, or with tags, fused parts or gaps): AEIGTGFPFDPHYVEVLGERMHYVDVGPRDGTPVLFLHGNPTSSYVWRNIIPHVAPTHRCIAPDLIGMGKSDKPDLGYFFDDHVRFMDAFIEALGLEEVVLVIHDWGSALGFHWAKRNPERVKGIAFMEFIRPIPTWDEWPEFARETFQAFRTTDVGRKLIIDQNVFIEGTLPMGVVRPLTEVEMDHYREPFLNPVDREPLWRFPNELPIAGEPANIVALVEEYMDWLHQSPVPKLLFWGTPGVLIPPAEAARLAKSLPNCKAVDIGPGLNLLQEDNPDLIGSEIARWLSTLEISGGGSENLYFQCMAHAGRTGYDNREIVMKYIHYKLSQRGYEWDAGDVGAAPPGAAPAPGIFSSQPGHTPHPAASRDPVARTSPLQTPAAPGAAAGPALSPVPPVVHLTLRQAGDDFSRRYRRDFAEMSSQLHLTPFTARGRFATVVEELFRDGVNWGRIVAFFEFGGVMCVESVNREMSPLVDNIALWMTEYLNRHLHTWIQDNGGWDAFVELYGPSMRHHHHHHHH
BCLXL WT, sequence (Q07817 other isoform, or with tags, fused parts or gaps): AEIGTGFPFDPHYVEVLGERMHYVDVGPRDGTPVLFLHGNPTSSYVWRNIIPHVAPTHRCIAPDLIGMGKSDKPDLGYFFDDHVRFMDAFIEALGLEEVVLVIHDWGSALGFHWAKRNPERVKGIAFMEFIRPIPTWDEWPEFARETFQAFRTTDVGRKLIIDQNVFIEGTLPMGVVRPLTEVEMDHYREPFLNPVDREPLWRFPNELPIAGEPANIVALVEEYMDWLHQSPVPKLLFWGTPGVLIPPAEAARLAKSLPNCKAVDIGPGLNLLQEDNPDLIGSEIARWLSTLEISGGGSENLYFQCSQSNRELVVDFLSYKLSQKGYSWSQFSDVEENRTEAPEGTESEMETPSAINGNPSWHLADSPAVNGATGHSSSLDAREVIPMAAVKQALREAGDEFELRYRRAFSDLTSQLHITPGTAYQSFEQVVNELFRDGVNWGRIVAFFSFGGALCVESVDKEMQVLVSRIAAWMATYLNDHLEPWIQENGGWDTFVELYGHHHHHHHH

`Cc1c(N(C(=O)c2cc(-c3cc4c(cc3C(=O)N3Cc5ccccc5C[C@H]3C)CN(C(=O)Cc3ccc(OCCN5CCOCC5)cc3)CC4)n(C)c2C)c2ccc(O)cc2)cc(C#N)n1C` [Example 21, N-(5-cyano-1,2-dimethyl-1H-pyrrol-3-yl)-N-(4-hydroxyphenyl)-1,2-dimethyl-5-{7-[(3R)-3-methyl-1,2,3,4-tetrahydroisoquinoline-2-carbonyl]-2-(2-{4-[2-(morpholin-4-yl)ethoxy]phenyl}acetyl)-1,2,3,4-tetrahydroisoquinolin-6-yl}-1H-pyrrole-3-carboxamide]: the Ki amounted to 1.1 nM at BCLXL WT, 0.19 nM at BCL2 D111A, 0.11 nM at BCL2 WT and 0.29 nM on BCL2 F104I. For the same compound, on BCLXL WT, the “TR_FRET EKI BCLxL/WT selectivty ratio” value was found to be 10.0. Besides, the “PK parameters Cinf” value in data set [1] was determined as 21.0 µM. In addition, the AUC in data set [1] stood at 12 µM·h. Further, the IC50 amounted to 9.36 nM in the data set on KMS12PE Bcl2 G101V and 2.36 nM in the data set on KMS12PE Bcl2 D103E.

For the compound `Cc1c(N(C(=O)c2cc(-c3cc4c(cc3C(=O)N3Cc5ccccc5C[C@H]3C)CN(C(=O)Cc3ccc(OCCC5CCOCC5)cc3)CC4)n(C)c2C)c2ccc(O)cc2)cc(C#N)n1C` [Example 27, N-(5-cyano-1,2-dimethyl-1H-pyrrol-3-yl)-N-(4-hydroxyphenyl)-1,2-dimethyl-5-{7-[(3R)-3-methyl-1,2,3,4-tetrahydroisoquinoline-2-carbonyl]-2-(2-{4-[2-(oxan-4-yl)ethoxy]phenyl}acetyl)-1,2,3,4-tetrahydroisoquinolin-6-yl}-1H-pyrrole-3-carboxamide], the Ki at BCLXL WT is 10.1 nM; at BCL2 D111A, 1.67 nM; on BCL2 WT, 0.8 nM; on BCL2 F104I, 2.36 nM. Moreover, the “TR_FRET EKI BCLxL/WT selectivty ratio” value at BCLXL WT was found to be 12.6. In addition, in data set [1], the “PK parameters Cinf” value was 12.2 µM. In addition, the AUC in data set [1] amounted to 19.5 µM·h. Besides, the IC50 in the data set on KMS12PE Bcl2 G101V amounted to 7.19 nM; in the data set with KMS12PE Bcl2 D103E, 1.44 nM.

As for `Cc1c(N(C(=O)c2cc(-c3cc4c(cc3C(=O)N3Cc5ccccc5C[C@H]3CN3CCCCC3)CN(C(=O)Cc3ccc(OCCN5CCOCC5)cc3F)CC4)n(C)c2C)c2ccc(O)cc2)cc(C#N)n1C` [Example 43, N-(5-cyano-1,2-dimethylpyrrol-3-yl)-5-[2-(2-{2-fluoro-4-[2-(morpholin-4-yl)ethoxy]phenyl}acetyl)-7-{[(3S)-3-(piperidin-1-ylmethyl)-3,4-dihydro-1H-isoquinolin-2-yl]carbonyl}-3,4-dihydro-1H-isoquinolin-6-yl]-N-(4-hydroxyphenyl)-1,2-dimethylpyrrole-3-carboxamide], the Ki at BCLXL WT was 2.2 nM; on BCL2 D111A, 0.1 nM; on BCL2 WT, 0.04 nM; at BCL2 F104I it was 0.16 nM. The “TR_FRET EKI BCLxL/WT selectivty ratio” value at BCLXL WT amounted to 55.0. Further, in data set [1], the “PK parameters Cinf” value was found to be 15.4 µM. The AUC in data set [1] was found to be 16.9 µM·h. Further, the IC50 in the data set on KMS12PE Bcl2 G101V was found to be 10 nM; with KMS12PE Bcl2 D103E, 1.44 nM.

On to `Cc1c(N(C(=O)c2cc(-c3cc4c(cc3C(=O)N3Cc5ccccc5C[C@H]3C)CN(C(=O)Cc3ccc(N5CCN6CCOC[C@@H]6C5)cc3F)CC4)n(C)c2C)c2ccc(O)cc2)cc(C#N)n1C` [Example 45, 5-[2-(2-{4-[(9aS)-octahydropyrazino[2,1-c][1,4]oxazin-8-yl]-2-fluorophenyl}acetyl)-7-[(3R)-3-methyl-1,2,3,4-tetrahydroisoquinoline-2-carbonyl]-1,2,3,4-tetrahydroisoquinolin-6-yl]-N-(5-cyano-1,2-dimethyl-1H-pyrrol-3-yl)-N-(4-hydroxyphenyl)-1,2-dimethyl-1H-pyrrole-3-carboxamide], for which the Ki came to 2.5 nM on BCLXL WT, 0.19 nM at BCL2 D111A, 0.08 nM at BCL2 WT and 1.65 nM at BCL2 F104I. Besides, the “TR_FRET EKI BCLxL/WT selectivty ratio” value at BCLXL WT came out at 31.6. The “PK parameters Cinf” value in data set [1] was 40.8 µM. The AUC in data set [1] is 34.2 µM·h. Moreover, the IC50 worked out at 18.2 nM with KMS12PE Bcl2 G101V and 2.7 nM in the data set with KMS12PE Bcl2 D103E.

As for `COC[C@@H]1Cc2ccccc2CN1C(=O)c1cc2c(cc1-c1cc(C(=O)N(c3ccc(O)cc3)c3cc(C#N)n(C)c3C)c(C)n1C)CCN(C(=O)Cc1ccc(OCCC3CCOCC3)cc1F)C2` [Example 52, N-(5-cyano-1,2-dimethylpyrrol-3-yl)-5-[2-(2-{2-fluoro-4-[2-(oxan-4-yl)ethoxy]phenyl}acetyl)-7-{[(3S)-3-(methoxymethyl)-3,4-dihydro-1H-isoquinolin-2-yl]carbonyl}-3,4-dihydro-1H-isoquinolin-6-yl]-N-(4-hydroxyphenyl)-1,2-dimethylpyrrole-3-carboxamide], the Ki is 3 nM on BCLXL WT, 0.64 nM at BCL2 D111A, 0.2 nM at BCL2 WT and 0.77 nM at BCL2 F104I. Besides, the “TR_FRET EKI BCLxL/WT selectivty ratio” value at BCLXL WT worked out at 15.2. Moreover, in data set [1], the “PK parameters Cinf” value amounted to 18.0 µM. Further, in data set [1], the AUC came to 33.7 µM·h. The results for the IC50 with KMS12PE Bcl2 G101V and with KMS12PE Bcl2 D103E were 10.6 nM and 1.86 nM, respectively.

For `Cc1c(N(C(=O)c2cc(-c3cc4c(cc3C(=O)N3Cc5ccccc5C[C@H]3C)CN(C(=O)Cc3ccc(OCCN5CCSCC5)cc3)CC4)n(C)c2C)c2ccc(O)cc2)cc(C#N)n1C` [Example 55, N-(5-cyano-1,2-dimethyl-1H-pyrrol-3-yl)-N-(4-hydroxyphenyl)-1,2-dimethyl-5-{7-[(3R)-3-methyl-1,2,3,4-tetrahydroisoquinoline-2-carbonyl]-2-(2-{4-[2-(thiomorpholin-4-yl)ethoxy]phenyl}acetyl)-1,2,3,4-tetrahydroisoquinolin-6-yl}-1H-pyrrole-3-carboxamide], the Ki on BCLXL WT amounted to 2.6 nM; on BCL2 D111A, 0.25 nM; on BCL2 WT it was 0.1 nM; at BCL2 F104I, 0.3 nM. Besides, the “TR_FRET EKI BCLxL/WT selectivty ratio” value on BCLXL WT was determined as 26.5. The “PK parameters Cinf” value in data set [1] was determined as 17.3 µM. Besides, the AUC in data set [1] came to 11.4 µM·h. Further, the IC50 amounted to 13.7 nM in the data set on KMS12PE Bcl2 G101V and 2.91 nM with KMS12PE Bcl2 D103E.

With `Cc1c(N(C(=O)c2cc(-c3cc4c(cc3C(=O)N3Cc5ccccc5C[C@H]3CN3CCC[C@H](C)C3)CN(C(=O)Cc3ccc(OCCN5CCOCC5)cc3F)CC4)n(C)c2C)c2ccc(O)cc2)cc(C#N)n1C` [Example 107], the Ki is 7.8 nM on BCLXL WT, 0.22 nM at BCL2 D111A, 0.09 nM at BCL2 WT and 0.34 nM on BCL2 F104I. In addition, the “TR_FRET EKI BCLxL/WT selectivty ratio” value at BCLXL WT turned out to be 87.6. Besides, the figures for the IC50 in the data set on KMS12PE Bcl2 G101V and in the data set with KMS12PE Bcl2 D103E were 9.13 nM and 1.22 nM, respectively.
